For 16 compounds, IC50 results are on record in patent US12570614B2, “Phenyl amino pyrimidine compounds and uses thereof” (GlaxoSmithKline LLC, priority 2007, dated 2026).

Assay [1] deals with human JAK3 (Homo sapiens (Human), UniProt P52333). The experiment in a line: JAK3 kinase domain Alphascreen enzyme screening. Format: biochemical. As to conditions: read-out: JAK3_ IC50_nM. As to the method: (§1) For screening purposes, compounds (in 100% DMSO) were warmed at 37° C. for at least 20 minutes before use. A […] stock was initially made in assay buffer, where the final concentration of DMSO was 0.3%. The stocks were then diluted in 384 well Optiplates (Packard) where the final concentration of the compound was 5 μM.
The kinase domain of human JAK3 was amplified from U937 mRNA using the polymerase chain reaction with the following primers: […]
The JAK3 PCR products were cloned into the pDest20 destination expression vector (Gibco). The JAK3 plasmid was then transformed into competent DH10Bac cells (Gibco), and the recombinant baculovirus was prepared via Sf9 insect cell transfection.
(§2) Baculovirus preparations from each of the JAK family members were infected into one litre of […] (Spodoptera frugiperda) cells (Invitrogen) grown in SF900II serum free medium (Invitrogen) to a cell density of approximately 2×10^6 cells/ml. Cells were infected with virus at a cell culture to virus stock ratio of 20:1. Cells were harvested and lysed 48 hours post infection. The GST-tagged JAK kinase domains were purified by affinity chromatography on a GSH agarose column (Scientifix).
The compounds were then incubated with substrate in the presence of either […] ATP for 60 or 90 minutes. […] (final concentration 111 μM) or substrate-2 substrate with the sequence biotin-[…] [SEQ ID NO: 16] (final concentration 133 μM). Alphascreen phosphotyrosine acceptor beads followed by streptavidin donor beads at a concentration of 1/100 in stop buffer were added to each well under subdued light and incubated for 2-3 hours. The Alphascreen plates were read on a Packard Fusion Alpha instrument
(Bead proximity is the source of the signal in Alpha formats.)

Assay [2] relates to BaF3 TELJAK cells (BafT_J2). The experiment in a line: Cellular screening, BaF3 TELJAK2 cells (Alamar Blue). As to conditions: Mus musculus, BaF3; 48-72 hr incubation; read-out: BafT_J2_IC50_μM. Format: cell-based. As to the method:
(§3) For screening purposes, compounds were diluted in 96 well plates at a concentration of 20 μM. Plates were warmed at 37° C. for 30 minutes before the assay was performed.
A TEL/Jak2 fusion was generated by digestion of the TELPCR product with BamH I/Sal I restriction enzymes, digestion of the JAK2 PCR product with Sal I/Not I restriction enzymes, followed by ligation and subcloning of the ligation product into the mammalian expression Vector pTRE 2 (Clontech), which was prepared by digestion with BamH I—Not I restriction enzymes, to give the TEL/Jak2 fusion plasmid pTELJAK2.
(§4) The growth factor dependent myelomonocytic cell line BaF3 bearing the pTET-off plasmid (Clontech) was transfected with either pTELJAK2 or pTELJAK3, and the transfected cells were selected for growth-factor independent cell growth. The BaF3 wild-type cells were cultured in DMEM containing 10% FCS, 10% WEHI 3B conditioned medium. The BaF3 TELJAK cells ([…]) were cultured in DMEM 10% Tet-System Approved FBS (without WEHI 3B conditioned medium).
(§5) Cell suspensions were prepared by harvesting cells from culture (the cells used in this test were in late log phase growth with high viability.) Cells were diluted in the appropriate growth medium, as described above, to 1.1× final concentration (from 50,000 cell/mL to 200,000 cell/mL, depending on cell line).
Compounds to be tested were added (10 μL, 10× final concentration) to a flat bottomed 96-well plate. The cellular suspension (90 μL per well) was then added, and the plate incubated for 48-72 hr at 37° C., 5% CO2. Alamar Blue 10 μL per well was added and the plates returned to the incubator for a further 4-6 hours.
(§6) Result are given in table 2 where +++ is <1 μM, ++ is <5 μM and + is <20 μM
(The colour change of resazurin is a common sign of viable cells or microbes.)

In assay [3] the test system is CTLL2. The assay can be described thus: Cellular screening, CTLL2 cells (Alamar Blue). As to conditions: Mus musculus, CTLL-2; 48-72 hr incubation; read-out: CTLL2_IC50_μM. The format is cell-based. As to the method:
as §3, §5
(§7) Compounds to be tested were added (10 μL, 10× final concentration) to a flat bottomed 96-well plate. The cellular suspension (90 μL per well) was then added, and the plate incubated for 48-72 hr at 37° C., 5% CO2. Alamar Blue 10 μL per well was added and the plates returned to the incubator for a further 4-6 hours. The plates were then read at 544 nm.
as §6

The test system of assay [4] is BaF3 wild-type cells. The experiment in a line: Cellular screening, BaF3 wild-type cells (Alamar Blue). Format: cell-based. The following applies: Mus musculus, 48-72 hr incubation, read-out: BAF3wt_IC50_μM. The protocol: as §3, §4, §5, §7, §6
Assay [5] has as its target human JAK2 (Homo sapiens (Human), UniProt O60674). The assay can be described thus: JAK2 kinase domain Alphascreen enzyme screening. The format is biochemical. As to conditions: read-out: JAK2_IC50_nM. The protocol:
as §1
The kinase domain of human JAK2 was amplified from U937 mRNA using the polymerase chain reaction with the following primers: […]
The JAK2 PCR products were cloned into the pDest20 destination vector (Gibco). The JAK2 plasmid was then transformed into competent DH10Bac cells (Gibco), and the recombinant baculovirus was prepared via Sf9 insect cell transfection.
as §2
Alphascreen phosphotyrosine acceptor beads followed by streptavidin donor beads at a concentration of 1/100 in stop buffer were added to each well under subdued light and incubated for 2-3 hours. The Alphascreen plates were read on a Packard Fusion Alpha instrument

Counter-ions that a name gives are not always drawn.

human JAK3, sequence (P52333 822-1111): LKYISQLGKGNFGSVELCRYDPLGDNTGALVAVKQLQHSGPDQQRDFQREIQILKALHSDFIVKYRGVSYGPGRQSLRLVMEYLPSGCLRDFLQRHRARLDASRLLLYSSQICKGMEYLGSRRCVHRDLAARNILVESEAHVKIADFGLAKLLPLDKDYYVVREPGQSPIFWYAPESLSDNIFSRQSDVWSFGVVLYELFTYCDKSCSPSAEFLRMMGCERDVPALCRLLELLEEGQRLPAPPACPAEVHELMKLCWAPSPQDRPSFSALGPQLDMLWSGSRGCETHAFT
human JAK2, sequence (O60674 849-1124): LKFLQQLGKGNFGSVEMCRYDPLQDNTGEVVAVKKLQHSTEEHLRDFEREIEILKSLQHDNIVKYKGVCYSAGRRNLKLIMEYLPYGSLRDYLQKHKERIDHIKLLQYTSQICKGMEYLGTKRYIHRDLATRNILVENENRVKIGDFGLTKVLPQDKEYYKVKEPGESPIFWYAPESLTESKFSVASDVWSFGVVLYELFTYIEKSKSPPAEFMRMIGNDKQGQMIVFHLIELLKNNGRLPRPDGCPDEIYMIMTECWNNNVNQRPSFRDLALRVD

For the compound `COc1cc(Nc2nccc(-c3ccc(C(=O)NCC#N)cc3)n2)cc(OC)c1OC` [Compound 20, N-(cyanomethyl)-4-(2-(3,4,5-trimethoxyphenyl-amino)pyrimidin-4-yl)benzamide], the IC50 in assay [1] is less than 100 nM; in assay [2] it was less than 1000 nM; in assay [3] it was less than 5000 nM; in assay [4], less than 1000 nM; in assay [5], less than 100 nM.
On to `O=C(NCC1CCCO1)c1ccc(-c2ccnc(Nc3ccc(N4CCOCC4)cc3)n2)cc1` (centres unmarked) [Compound 21, 4-(2-(4-morpholinophenyl-amino)pyrimidin-4-yl)-N-((tetrahydrofuran-2-yl)methyl)benzamide], for which the IC50 was less than 500 nM in assay [1]; less than 20000 nM in assay [2]; less than 20000 nM in assay [3]; less than 20000 nM in assay [4]; less than 500 nM in assay [5].
`CS(=O)(=O)N(CC#N)c1ccc(-c2ccnc(Nc3ccc(N4CCOCC4)cc3)n2)cc1` [Compound 31, N-(cyanomethyl)-N-(4-(2-(4-morpholinophenyl-amino)pyrimidin-4-yl)phenyl)methane-sulfonamide]: the IC50 in assay [1] was less than 500 nM; in assay [2], less than 5000 nM; in assay [3] it was less than 5000 nM; in assay [4], less than 5000 nM; in assay [5], less than 100 nM.
As to `N#CCNC(=O)CNC(=O)c1ccc(-c2ccnc(Nc3ccc(N4CCOCC4)cc3)n2)cc1` [Compound 34, N-(2-(cyanomethylamino)-2-oxoethyl)-4-(2-(4-morpholinophenyl-amino)pyrimidin-4-yl)benzamide], the IC50 was less than 500 nM in assay [1]; less than 20000 nM in assay [2]; less than 5000 nM in assay [3]; less than 5000 nM in assay [4]; less than 100 nM in assay [5].
With `N#CCNC(=O)c1ccc(-c2ccnc(Nc3ccc(N4CCC(CO)CC4)cc3)n2)cc1` [Compound 42, N-(cyanomethyl)-4-(2-(4-(4-(hydroxymethyl)piperidin-1-yl)phenylamino)pyrimidin-4-yl)benzamide], the IC50 in assay [1] was less than 500 nM; in assay [2], less than 5000 nM; in assay [3], less than 5000 nM; in assay [4] it was less than 5000 nM; in assay [5], less than 100 nM.
As to `N#CCNC(=O)c1ccc(-c2ccnc(Nc3ccc(C(=O)N4CCC(N5CCCC5)CC4)cc3)n2)cc1` [Compound 50, N-(cyanomethyl)-4-(2-(4-(4-(pyrrolidin-1-yl)piperidine-1-carbonyl)phenyl-amino)pyrimidin-4-yl)benzamide], the IC50 in assay [1] was less than 1000 nM; in assay [2] it was less than 5000 nM; in assay [3], greater than 20000 nM; in assay [4], less than 20000 nM; in assay [5] it was less than 100 nM.
In the case of `N#CCNC(=O)c1ccc(-c2nc(Nc3ccc(N4CCOCC4)cc3)ncc2Cl)cc1` [Compound 53, 4-(5-chloro-2-(4-morpholinophenyl-amino)pyrimidin-4-yl)-N-(cyanomethyl) benzamide], the IC50 was less than 500 nM in assay [1]; less than 1000 nM in assay [2]; less than 5000 nM in assay [3]; less than 5000 nM in assay [4]; less than 100 nM in assay [5].
For the compound `CC(=O)N1CCN(c2ccc(Nc3nccc(-c4ccc(C(=O)NCC#N)cc4)n3)cc2)CC1` [Compound 55, 4-(2-(4-(4-acetylpiperazin-1-yl)phenylamino)pyrimidin-4-yl)-N-(cyanomethyl) benzamide], the IC50 is less than 100 nM in assay [1]; less than 1000 nM in assay [2]; less than 5000 nM in assay [3]; less than 5000 nM in assay [4]; less than 100 nM in assay [5].
In the case of `Cc1cnc(Nc2ccc(N3CCC(NS(C)(=O)=O)CC3)cc2)nc1-c1ccc(C(=O)NCC#N)cc1` [Compound 56, N-(cyanomethyl)-4-(5-methyl-2-(4-(4-(methylsulfonamido)piperidin-1-yl)phenylamino)pyrimidin-4-yl)benzamide], the IC50 in assay [1] was less than 100 nM; in assay [2], less than 1000 nM; in assay [3], less than 5000 nM; in assay [4], less than 5000 nM; in assay [5], less than 100 nM.
For `C#CCN(c1ccc(-c2ccnc(Nc3ccc(N4CCOCC4)cc3)n2)cc1)S(C)(=O)=O` [Compound 57, N-(4-(2-(4-morpholinophenyl-amino)pyrimidin-4-yl)phenyl)-N-(prop-2-ynyl)methane-sulfonamide tosylate], the IC50 in assay [1] was less than 1000 nM; in assay [2] it was less than 5000 nM; in assay [3] it was less than 5000 nM; in assay [4], less than 5000 nM; in assay [5], less than 100 nM.
Turning to `Cc1cnc(Nc2ccc(N3CCC(O)CC3)cc2)nc1-c1ccc(C(=O)NCC#N)cc1` [Compound 58, N-(cyanomethyl)-4-(2-(4-(4-hydroxypiperidin-1-yl)phenylamino)-5-methylpyrimidin-4-yl)benzamide], the IC50 is less than 100 nM in assay [1]; less than 1000 nM in assay [2]; less than 1000 nM in assay [3]; less than 5000 nM in assay [4]; less than 100 nM in assay [5].
Take `N#CCNC(=O)c1ccc(-c2ccnc(Nc3ccc(OC4CCNCC4)cc3)n2)cc1` [Compound 59, N-(cyanomethyl)-4-(2-(4-(piperidin-4-yloxy)phenylamino)pyrimidin-4-yl)benzamide]: the IC50 in assay [1] was less than 500 nM; in assay [2] it was less than 5000 nM; in assay [3], less than 5000 nM; in assay [4], less than 1000 nM; in assay [5], less than 100 nM.
In the case of `N#CCNC(=O)c1ccc(-c2nc(Nc3ccc(N4CCOCC4)cc3)ncc2Br)cc1` [Compound 65, 4-(5-bromo-2-(4-morpholinophenyl-amino)pyrimidin-4-yl)-N-(cyanomethyl) benzamide], the IC50 was less than 100 nM in assay [1]; less than 1000 nM in assay [2]; less than 1000 nM in assay [3]; less than 1000 nM in assay [4]; less than 100 nM in assay [5].
For the compound `CCCOCc1cccc(Nc2nccc(-c3ccc(C(=O)NCC#N)cc3)n2)c1` [Compound 75, N-(cyanomethyl)-4-(2-(3-(proproxymethyl)phenylamino)pyrimidin-4-yl)benzamide], the IC50 in assay [1] is less than 1000 nM; in assay [2], less than 5000 nM; in assay [3] it was less than 5000 nM; in assay [4], less than 5000 nM; in assay [5], less than 100 nM.
On to `N#CCC(=O)Nc1ccc(-c2ccnc(Nc3ccc(N4CCOCC4)cc3)n2)cc1C(F)(F)F` [Compound 76, 2-cyano-N-(4-(2-(4-morpholinophenyl-amino)pyrimidin-4-yl)-2-(trifluoromethyl)phenyl)acetamide], for which the IC50 in assay [1] was less than 1000 nM; in assay [2], less than 5000 nM; in assay [3], less than 5000 nM; in assay [4], less than 5000 nM; in assay [5] it was less than 100 nM.
Regarding `C=CCOCc1cc(Nc2nccc(-c3ccc(C(=O)NCC#N)cc3)n2)ccc1N1CCOCC1` [Compound 79], the IC50 in assay [1] is less than 500 nM; in assay [2], less than 1000 nM; in assay [3] it was less than 5000 nM; in assay [4], less than 1000 nM; in assay [5], less than 100 nM.
